Results reported in BigSolDB 2.1.

NC(=O)C[C@H](N)C(=O)O.O
solubility (mole fraction)
Conditions | 278.15 K | 283.15 K | 288.15 K | 293.15 K | 298.15 K | 303.15 K | 308.15 K | 313.15 K | 318.15 K | 323.15 K
in acetonitrile | 5.98e-06 | 8.11e-06 | 1.09e-05 | 1.44e-05 | 1.89e-05 | 2.49e-05 | 3.2e-05 | 4.11e-05 | 5.24e-05 | 6.64e-05
in ethanol | 1.32e-05 | 1.77e-05 | 2.36e-05 | 3.11e-05 | 4.06e-05 | 5.25e-05 | 6.73e-05 | 8.57e-05 | 0.000108 | 0.000136
in ethyl acetate | 1.25e-05 | 1.73e-05 | 2.29e-05 | 2.99e-05 | 3.89e-05 | 5.01e-05 | 6.39e-05 | 8.21e-05 | 0.000102 | 0.000129
in isobutanol | 1.11e-05 | 1.49e-05 | 1.97e-05 | 2.59e-05 | 3.38e-05 | 4.36e-05 | 5.58e-05 | 6.98e-05 | 8.97e-05 | 0.000114
in isopropanol | 9.67e-06 | 1.26e-05 | 1.65e-05 | 2.22e-05 | 2.91e-05 | 3.81e-05 | 4.96e-05 | 6.19e-05 | 8.17e-05 | 0.000104
in methanol | 1.54e-05 | 2.04e-05 | 2.7e-05 | 3.52e-05 | 4.56e-05 | 5.86e-05 | 7.42e-05 | 9.4e-05 | 0.000118 | 0.000147
in methyl acetate | 1.66e-05 | 2.23e-05 | 2.91e-05 | 3.78e-05 | 4.89e-05 | 6.28e-05 | 7.98e-05 | 0.000101 | 0.000127 | 0.000158
in n-butanol | 1.07e-05 | 1.43e-05 | 1.9e-05 | 2.5e-05 | 3.26e-05 | 4.2e-05 | 5.38e-05 | 6.84e-05 | 8.62e-05 | 0.000105
in n-butyl acetate | 1.57e-05 | 2.09e-05 | 2.7e-05 | 3.49e-05 | 4.54e-05 | 5.76e-05 | 7.24e-05 | 9.16e-05 | 0.000114 | 0.000142
in n-propanol | 1.07e-05 | 1.45e-05 | 1.94e-05 | 2.57e-05 | 3.37e-05 | 4.4e-05 | 5.68e-05 | 7.28e-05 | 9.28e-05 | 0.000117
in n-propyl acetate | 1.63e-05 | 2.14e-05 | 2.81e-05 | 3.66e-05 | 4.76e-05 | 6.11e-05 | 7.78e-05 | 9.84e-05 | 0.000121 | 0.000154
in water | 0.0014 | 0.00178 | 0.00227 | 0.0028 | 0.00344 | 0.00422 | 0.00518 | 0.00627 | 0.0076 | 0.00914
